According to patent US20140147527A1, “COMPOSITIONS AND METHODS FOR TREATING EMOTIONAL-PSYCHOLOGICAL STRESS” (TSUKUBA UNIVERSITY, priority 2012, published 2014):

Tested on: SH-SY5Y cells
Assay: Cell viability assay (MTT) in SH-SY5Y cells
Type: cell-based, human
Conditions: H2O2 0, 50, 100, 150, 200 or 250 μM, 24 hours
Experimental: To determine the concentration of C. schoenanthus ethanol extracts which can be used to investigate their anti-stress effect, SH-SY5Y cells were cultured with several concentrations (1/100, 1/1000, or 1/10000 v/v dilution of C. schoenanthus ethanol extract in culturing medium) for 72 hours.
SH-SY5Y cells were treated with different concentrations of C. schoenanthus extract (at a 1/500, 1/750, 1/1000, 1/1500, or 1/2000 v/v dilution in medium) for 72 hours and cell viability was determined by MTT assay.
To evaluate whether H2O2 influences neuronal cytotoxicity, SH-SY5Y cells were treated with various concentrations of H2O2 (0, 50, 100, 150, 200, or 250 μM) for 24 hours.
A cell survival analysis was performed using 3-(4,5-Dimethylthiazol-2-yl)-2,5-diphenyltetrazolium bromide (MTT), which was dissolved in PBS to a final concentration of 5 mg/ml. […] Then, 100 μl of 10% of sodium dodecyl sulfate (SDS) was added and after overnight incubation, the absorbance was determined at 570 nm. The control wells which contained cultured cells with medium only were considered as 100% cell viability.

SMILES: OO [H2O2]
- cytotoxicity in SH-SY5Y cells: dose-dependent cytotoxicity
